Assay results reported in publication PMC11763264, “Antibacterial and Antifungal Activities of Linear and Cyclic Peptides Containing Arginine, Tryptophan, and Diphenylalanine” (Antibiotics, 2025).
Values after ≈ are worked out from the molar mass of the structure shown. Non-standard residues stand in square brackets, D forms with d. Residues, ends and D or L forms follow the SMILES beside them. Dip = N[C@H](C(=O)O)C(c1ccccc1)c1ccccc1

Tests used:
Assay in all cases: microbe, parasite or virus in culture
E. coli (ATCC 25922) = assay type: cell-based, Escherichia coli
Description: (§1) The antibacterial activity of all ten synthesized linear and cyclic peptides was evaluated against MRSA (ATCC BAA-1556), S. aureus (ATCC 29213), E. faecium (ATCC 700221), S. pneumoniae (ATCC 51938), E. faecalis (ATCC 29212), B. subtilis (ATCC-6633), K. pneumoniae (ATCC BAA-1705), P. aeruginosa (ATCC 27883), and E. coli (ATCC 25922). Meropenem and daptomycin were used as positive controls for this study. Certain peptides are marked as “NT” (not tested) against specific bacterial strains based on initial screening data. […] The MIC was determined by micro-broth dilution protocol, where the minimal concentrations were determined to be in wells with no visible bacterial growth.
(§2) All bacterial experiments were carried out in a laminar flow hood (Labconco, Kansas City, MO, USA). The bacterial strains were cultured following the guidelines set by the Clinical Laboratory Standards Institute (CLSI). Antibacterial assays were performed using a standard microtiter dilution method as described in previous studies. The minimum inhibitory concentration (MIC) refers to the lowest peptide concentration that inhibits bacterial growth in wells with no visible bacterial growth. MIC was determined by micro-broth dilution. Bacteria were cultured overnight in 6 mL of Luria Broth (LB). A stock solution of the peptide was prepared in water and DMSO, and a test compound solution with a concentration of 256 µg/mL was made in LB. Meropenem, with a solubility of 8 mg/mL, was prepared as a stock solution at 4 mg/500 µL. An aliquot of the overnight bacteria culture was diluted in normal saline (NS, 1 mL) until achieving a 0.5 McFarland turbidity (1.5 × 10^8 bacterial cell CFU/mL). A 0.5 McFarland compared solution (60 µL) was added to Mueller Hinton Broth (MH) 8940 µL to generate a 1/150 dilution. A 200 µL test compound solution was added to the first well of a 96-well plate, and the remaining wells (2–12) were filled with 100 µL of MH media using a multi-channel pipette from a sterile reservoir. A concentration of […] of the tested peptides was prepared from a stock solution of the samples for testing in Muller−Hinton broth MH media. Peptides stock solution was dissolved in 5% DMSO in water, and the final concentration of DMSO in the first well of assay plate was 2.5% DMSO/H2O and diluted across the assay plate.
(§3) A 100 µL sample from well 1 was pipetted into well 2, and the solution was mixed thoroughly by pipetting up and down. Next, 100 µL was transferred from well 2 to well 3, followed by thorough mixing. This 2-fold serial dilution process continued through well 11, with no additions made to well 12. The final 100 µL from well 11 was discarded. After completing the serial dilution, each well (1–12) contained 100 µL of solution. The bacterial culture in MH media was vortexed and transferred to a sterile reservoir, from which 100 µL was added to each well using a 12-channel pipette. (Note: The dilutions were further diluted upon adding the bacterial solution; for example, the concentration in well 1 started at […] after the addition of the bacterial culture.) The plates were incubated overnight at 37 °C for 24 h. All experiments were performed in triplicate and repeated twice, with controls consisting of bacteria in MH media and positive controls of daptomycin or meropenem.

E. faecalis (ATCC 29212) = assay type: cell-based, Enterococcus faecalis
Description: as §1, §2, §3

[1] = tested on: S. pneumoniae (ATCC 51938); assay type: cell-based, Streptococcus pneumoniae
Description: as §1, §2, §3

MRSA (ATCC BAA-1556) = assay type: cell-based, Methicillin-Resistant Staphylococcus aureus
Description: as §1, §2, §3

[2] = tested on: K. pneumoniae (ATCC BAA-1705); assay type: cell-based, Klebsiella pneumoniae
Description: as §1, §2, §3

B. subtilis (ATCC-6633) = assay type: cell-based, Bacillus subtilis
Description: as §1, §2, §3

[3] = tested on: C. parapsilosis (ATCC 22019); assay type: cell-based, Candida parapsilosis; details: ATCC 22019, 24 h
Description: (§4) The antifungal activity of all ten synthesized linear and cyclic peptides was evaluated against C. albicans (ATCC 60193), C. parapsilosis (ATCC 22019), and A. fumigatus (AF-293). Fluconazole and amphotericin B were used as positive controls for this study. The MIC was determined at concentrations in wells with no visible fungal growth.
(§5) In this study, C. albicans and C. parapsilosis were cultured on Yeast Peptone Dextrose (YPD) agar containing 1% w/v yeast extract, 2% w/v peptone, 2% w/v D-glucose, and 1.5% agar. A single colony from the agar was selected and cultured in Tryptone soy broth supplemented with 0.1% D-glucose, then incubated for 24 h at 37 °C. The cells were washed twice with PBS by centrifugation at 2000 RPM for 5 min. The pellet was resuspended in 5 mL of PBS, diluted in RPMI 1640 with L-glutamine, supplemented with 2% D-glucose, and the pH adjusted using HEPES buffer. The suspension was then incubated for 50 min at 35 °C to achieve a final cell concentration of 10^6 cells/mL.
(§6) Peptide concentrations of 50, 25, 12.5, 6.25, and 3.1 μg/mL were tested in triplicate and repeated twice. Each well of a 96-well plate was inoculated with the prepared inoculum suspension, which was diluted with RPMI media to a final volume of 200 μL per well. The control well received the same inoculum without any compound. The plates were incubated for 24 h at 37 °C. Fungal and microbial growth were visually observed in the control wells, and the minimum inhibitory concentration (MIC) was determined as the lowest concentration at which no growth was detected in the wells. Amphotericin B was used as a standard antifungal drug.

E. faecium (ATCC 700221) = assay type: cell-based, Enterococcus faecium
Description: as §1, §2, §3

[4] = tested on: P. aeruginosa (ATCC 27883); assay type: cell-based, Pseudomonas aeruginosa
Description: as §1, §2, §3

C. albicans (ATCC 60193) = assay type: cell-based, Candida albicans; details: ATCC 60193, 24 h
Description: as §4, §5, §6

S. aureus (ATCC 29213) = assay type: cell-based, Staphylococcus aureus
Description: as §1, §2, §3

| SMILES | MIC (E. coli (ATCC 25922); ATCC 25922, 24 h) | MIC (E. faecalis (ATCC 29212); ATCC 29212, 24 h) | MIC ([1]; ATCC 51938, 24 h) | MIC (MRSA (ATCC BAA-1556); ATCC BAA-1556, 24 h) | MIC ([2]; ATCC BAA-1705, 24 h) | MIC (B. subtilis (ATCC-6633); ATCC-6633, 24 h) | MIC [3] | MIC (E. faecium (ATCC 700221); ATCC 700221, 24 h) | MIC ([4]; ATCC 27883, 24 h) | MIC (C. albicans (ATCC 60193)) | MIC (S. aureus (ATCC 29213); ATCC 29213, 24 h) | MIC (E. coli (ATCC 25922); Escherichia coli, ATCC25922, micro-broth dilution, Mueller Hinton broth, 37 °C, 24 h, no visible growth, triplicate, repeated twice, NA = Not active) | MIC (E. faecalis (ATCC 29212); Enterococcus faecalis, ATCC29212, micro-broth dilution, Mueller Hinton broth, 37 °C, 24 h, no visible growth, triplicate, repeated twice) | MIC ([1]; Streptococcus pneumoniae, ATCC51938, micro-broth dilution, Mueller Hinton broth, 37 °C, 24 h, no visible growth, triplicate, repeated twice) | MIC (MRSA (ATCC BAA-1556); Staphylococcus aureus, micro-broth dilution, Mueller Hinton broth, 37 °C, 24 h, no visible growth, triplicate, repeated twice) | MIC ([2]; Klebsiella pneumoniae, ATCCBAA1705, micro-broth dilution, Mueller Hinton broth, 37 °C, 24 h, no visible growth, triplicate, repeated twice, NA = Not active) | MIC (B. subtilis (ATCC-6633); Bacillus subtilis, ATCC6633, micro-broth dilution, Mueller Hinton broth, 37 °C, 24 h, no visible growth, triplicate, repeated twice) | MIC (E. faecium (ATCC 700221); Enterococcus faecium, ATCC700221, micro-broth dilution, Mueller Hinton broth, 37 °C, 24 h, no visible growth, triplicate, repeated twice) | MIC ([4]; Pseudomonas aeruginosa, ATCC27883, micro-broth dilution, Mueller Hinton broth, 37 °C, 24 h, no visible growth, triplicate, repeated twice, NA = Not active) | MIC (S. aureus (ATCC 29213); Staphylococcus aureus, ATCC29213, micro-broth dilution, Mueller Hinton broth, 37 °C, 24 h, no visible growth, triplicate, repeated twice) |
| --- | --- | --- | --- | --- | --- | --- | --- | --- | --- | --- | --- | --- | --- | --- | --- | --- | --- | --- | --- | --- |
| N=C(N)NCCC[C@H](NC(=O)[C@@H](NC(=O)[C@H](CCCNC(=N)N)NC(=O)[C@@H](NC(=O)[C@H](CCCNC(=N)N)NC(=O)[C@H](Cc1c[nH]c2ccccc12)NC(=O)[C@H](CCCNC(=N)N)NC(=O)[C@H](Cc1c[nH]c2ccccc12)NC(=O)[C@H](CCCNC(=N)N)NC(=O)[C@@H](N)Cc1c[nH]c2ccccc12)C(c1ccccc1)c1ccccc1)C(c1ccccc1)c1ccccc1)C(=O)O [((DipR)2(WR)3)] (H-WRWRWR[Dip]R[Dip]R-OH) | 6.3 µM (≈ 11.4 µg/mL) | 6.3 µM (≈ 11.4 µg/mL) | 0.78 µM (≈ 1.41 µg/mL) | 3.1 µM (≈ 5.59 µg/mL) | 12.5 µM (≈ 22.6 µg/mL) | 1.6 µM (≈ 2.89 µg/mL) | 6.9 µM (≈ 12.4 µg/mL) | 3.1 µM (≈ 5.59 µg/mL) | 12.5 µM (≈ 22.6 µg/mL) | 3.5 µM (≈ 6.31 µg/mL) | 3.1 µM (≈ 5.59 µg/mL) |  |  |  |  |  |  |  |  |  |
| N=C(N)NCCC[C@H](NC(=O)[C@@H](NC(=O)[C@H](CCCNC(=N)N)NC(=O)[C@@H](NC(=O)[C@H](CCCNC(=N)N)NC(=O)[C@@H](NC(=O)[C@H](CCCNC(=N)N)NC(=O)[C@H](Cc1c[nH]c2ccccc12)NC(=O)[C@H](CCCNC(=N)N)NC(=O)[C@@H](N)Cc1c[nH]c2ccccc12)C(c1ccccc1)c1ccccc1)C(c1ccccc1)c1ccccc1)C(c1ccccc1)c1ccccc1)C(=O)O [((DipR)3(WR)2)] (H-WRWR[Dip]R[Dip]R[Dip]R-OH) | 12.5 µM (≈ 23 µg/mL) | 3.1 µM (≈ 5.71 µg/mL) | 0.78 µM (≈ 1.44 µg/mL) | 3.1 µM (≈ 5.71 µg/mL) | 25 µM (≈ 46 µg/mL) | 3.1 µM (≈ 5.71 µg/mL) | 6.8 µM (≈ 12.5 µg/mL) | 3.1 µM (≈ 5.71 µg/mL) | 25 µM (≈ 46 µg/mL) | 3.4 µM (≈ 6.26 µg/mL) | 3.1 µM (≈ 5.71 µg/mL) |  |  |  |  |  |  |  |  |  |
| N=C(N)NCCC[C@H](NC(=O)[C@@H](NC(=O)[C@H](CCCNC(=N)N)NC(=O)[C@@H](NC(=O)[C@H](CCCNC(=N)N)NC(=O)[C@@H](NC(=O)[C@H](CCCNC(=N)N)NC(=O)[C@@H](NC(=O)[C@H](CCCNC(=N)N)NC(=O)[C@@H](N)Cc1c[nH]c2ccccc12)C(c1ccccc1)c1ccccc1)C(c1ccccc1)c1ccccc1)C(c1ccccc1)c1ccccc1)C(c1ccccc1)c1ccccc1)C(=O)O [((DipR)4(WR))] (H-WR[Dip]R[Dip]R[Dip]R[Dip]R-OH) | 12.5 µM (≈ 23.5 µg/mL) | 1.6 µM (≈ 3.01 µg/mL) | 0.78 µM (≈ 1.47 µg/mL) | 3.1 µM (≈ 5.82 µg/mL) | 25 µM (≈ 47 µg/mL) | 12.5 µM (≈ 23.5 µg/mL) | 6.6 µM (≈ 12.4 µg/mL) | 1.6 µM (≈ 3.01 µg/mL) | 25 µM (≈ 47 µg/mL) | 6.6 µM (≈ 12.4 µg/mL) | 3.1 µM (≈ 5.82 µg/mL) |  |  |  |  |  |  |  |  |  |
| CCCCCCCCCC(=O)N[C@@H](Cc1c[nH]c2ccccc12)C(=O)N[C@H](CC(N)=O)C(=O)N[C@@H](CC(=O)O)C(=O)N[C@@H]1C(=O)NCC(=O)N[C@@H](CCCN)C(=O)N[C@@H](CC(=O)O)C(=O)N[C@H](C)C(=O)N[C@@H](CC(=O)O)C(=O)NCC(=O)N[C@H](CO)C(=O)N[C@@H]([C@H](C)CC(=O)O)C(=O)N[C@@H](CC(=O)c2ccccc2N)C(=O)O[C@@H]1C [Daptomycin, reference compound] |  | 9.87 µM (≈ 16 µg/mL) | 4.9 µM (≈ 7.94 µg/mL) | 1.2 µM (≈ 1.94 µg/mL) |  | 0.3 µM (≈ 0.486 µg/mL) |  | 1.2 µM (≈ 1.94 µg/mL) |  |  | 0.62 µM (≈ 1 µg/mL) |  |  |  |  |  |  |  |  |  |
| C[C@@H](O)[C@H]1C(=O)N2C(C(=O)O)=C(S[C@@H]3CN[C@H](C(=O)N(C)C)C3)[C@H](C)[C@H]12 [Meropenem, reference compound] |  |  |  |  |  |  |  |  |  |  |  | 2.6 µM (≈ 0.997 µg/mL) | 5.2 µM (≈ 1.99 µg/mL) | 0.6 µM (≈ 0.23 µg/mL) | 5.2 µM (≈ 1.99 µg/mL) | 42 µM (≈ 16.1 µg/mL) | 0.6 µM (≈ 0.23 µg/mL) | 83 µM (≈ 31.8 µg/mL) | 2.6 µM (≈ 0.997 µg/mL) | 0.5 µM (≈ 0.192 µg/mL) |
